The values that follow come from US20090005385A1, “Treatment or Prevention of Cancer or Cardiovascular Disease with Methenyltetrahydrofolate Synthetases” (CORNELL RESEARCH FOUNDATION, INC., priority 2004, published 2009).

The structures appear in SMILES notation.

The test system of one data set is cell cultures. The conditions noted are these: substrate for FPGS; cited from earlier work.
Data set [1] addresses T1, MTHFS (Homo sapiens, UniProt P49914).
T1 sequence (P49914 1-203): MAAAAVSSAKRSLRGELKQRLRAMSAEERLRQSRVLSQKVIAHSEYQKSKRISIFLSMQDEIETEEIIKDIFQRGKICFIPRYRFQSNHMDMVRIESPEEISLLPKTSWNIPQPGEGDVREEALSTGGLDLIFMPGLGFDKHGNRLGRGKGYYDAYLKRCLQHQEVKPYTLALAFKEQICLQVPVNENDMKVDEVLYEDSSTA
The conditions noted are these: cited from earlier work.

In data set [2] the target is T2, MTHFS.oxNADA.Cu^2+ complex (Mus musculus, UniProt Q9D110).
T2 construct: hexa-histidine tag; made in house; host or cells: E. coli BL21 Star
T2 sequence (Q9D110 1-203): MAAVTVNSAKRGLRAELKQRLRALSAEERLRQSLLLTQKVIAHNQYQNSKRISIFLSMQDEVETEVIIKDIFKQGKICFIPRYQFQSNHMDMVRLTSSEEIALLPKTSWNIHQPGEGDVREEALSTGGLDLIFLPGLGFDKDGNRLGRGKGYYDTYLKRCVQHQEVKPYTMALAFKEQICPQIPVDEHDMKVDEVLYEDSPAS
The data set is described as follows: MTHFS-mediated folate catabolism in vitro (HPLC, pABG formation). The conditions noted are these: 5 min incubation, five independent experiments. The data set is classed as biochemical. How it is done:
Recombinant mouse MTHFS protein (50 μM) was incubated with 50 μM CuCl2, 50 μM NADA (oxidized with equimolar amounts of sodium periodate, extracted with ethyl acetate, and diluted 1:1 with 1 M Tris pH 8.0), in 50 mM Tris pH 8.0 for 5 min, then dialyzed against 2 L of 50 mM Tris pH 8.0 at 4° C. for 5 hours to remove unbound CuCl2 and oxidized NADA. (6S)-[^3H]-5-methylTHF or (6S)-[^3H]-5-formylTHF, were evaporated to dryness using a speedvac, resuspended in 20 μL of 50 μM unlabeled (6S)-5-methylTHF or (6S)-5-formylTHF in 100 mM MES pH 6.5, then approximately 275,000 cpm of the labeled folate was added immediately to either the dialyzed mouse MTHFS protein or the dialysis buffer as a control. The mixture was incubated 5 min at room temperature, then either analyzed immediately by HPLC or flash frozen using dry ice/ethanol. The reactions were spiked with a mixture of unlabeled pABG, (6R,S)-5-formylTHF, and (6S)-5-methylTHF, then analyzed on a Shimadzu HPLC equipped with a diode array UV spectrophotometric detector and a Luna 5μ 250×4.6 mm C18 column (Phenomenex). […] For each analysis, 1.0 ml fractions were collected into scintillation tubes, and the tritium was quantified using a Beckman LS 6500 liquid scintillation counter. […]

The target of the next data set is mouse enzyme GARFT (Mus musculus, UniProt Q64737). The conditions noted are these: read-out: Ki mouse GARFT; cited from earlier work.
Chain of mouse enzyme GARFT (Q64737 whole entry): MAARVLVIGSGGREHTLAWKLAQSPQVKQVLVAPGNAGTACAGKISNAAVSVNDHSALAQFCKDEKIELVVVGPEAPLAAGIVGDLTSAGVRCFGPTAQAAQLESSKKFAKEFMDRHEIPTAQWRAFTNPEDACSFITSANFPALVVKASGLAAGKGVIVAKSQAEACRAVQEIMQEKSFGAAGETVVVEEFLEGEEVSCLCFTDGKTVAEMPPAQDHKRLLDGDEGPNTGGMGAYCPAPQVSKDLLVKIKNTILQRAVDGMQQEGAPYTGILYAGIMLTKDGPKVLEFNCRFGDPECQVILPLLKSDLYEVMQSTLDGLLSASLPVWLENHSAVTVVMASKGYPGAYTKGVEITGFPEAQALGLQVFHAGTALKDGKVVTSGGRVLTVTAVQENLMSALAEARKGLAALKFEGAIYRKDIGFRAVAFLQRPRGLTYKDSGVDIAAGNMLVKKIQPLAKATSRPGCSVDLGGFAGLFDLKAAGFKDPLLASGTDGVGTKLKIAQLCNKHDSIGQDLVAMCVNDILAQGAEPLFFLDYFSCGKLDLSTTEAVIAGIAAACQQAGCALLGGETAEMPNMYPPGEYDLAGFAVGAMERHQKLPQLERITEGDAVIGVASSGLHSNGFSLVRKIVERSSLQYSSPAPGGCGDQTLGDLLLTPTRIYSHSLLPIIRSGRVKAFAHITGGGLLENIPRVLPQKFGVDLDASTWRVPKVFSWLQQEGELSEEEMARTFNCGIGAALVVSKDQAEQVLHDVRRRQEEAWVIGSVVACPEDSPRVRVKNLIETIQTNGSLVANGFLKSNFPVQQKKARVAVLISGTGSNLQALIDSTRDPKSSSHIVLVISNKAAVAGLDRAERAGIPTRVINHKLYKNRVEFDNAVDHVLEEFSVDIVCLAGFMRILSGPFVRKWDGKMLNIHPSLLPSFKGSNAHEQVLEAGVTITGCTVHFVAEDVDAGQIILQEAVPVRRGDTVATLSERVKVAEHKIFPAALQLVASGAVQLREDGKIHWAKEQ
The subject of data set [3] is MCF-7 cells. The data set is described as follows: Radiolabeled folate accumulation in cultured cells treated with catecholamines. The format is cell-based, human. The conditions noted are these: 12 h, 25 nM (6S)-[^3H]-5-formylTHF, 0-150 μM catecholamine. How it is done: (§1) Cell monolayers at 70% confluence in 6-well plates were labeled for 12 h in defined αMEM lacking folate and glycine, but supplemented with 25 nM (6S)-[^3H]5-formylTHF and 0, 25 μM, 50 μM, 75 μM, 100 μM, or 150 μM NADA, dopamine, or epinephrine. Cells were harvested by washing with 5 mL PBS, trypsinized, and pelleted by centrifugation and viable cells (determined by their ability to exclude trypan blue) were quantified. The cell pellets were lysed with 0.2 M ammonium hydroxide, and the intracellular tritium was quantified using a Beckman LS 8100 liquid scintillation counter.
Because the addition of NADA to the chase medium increased folate turnover rates in MCF-7 cells, the effects of various catecholamines on [^3H]folate accumulation was investigated. Cells were cultured for 12 h in defined αMEM medium containing 25 nM (6S)-[^3H]-5-formylTHF and various concentrations of NADA, dopamine, and epinephrine, and cellular [^3H]folate content was determined.

The test system of data set [4] is MCF-7 cells. The data set is described as follows: Cell viability (trypan blue) after catecholamine treatment. The data set is classed as cell-based, human. The conditions noted are these: 12 h, various concentrations. How it is done: FIG. 12A-B show the effect of NADA, dopamine, and epinephrine on folate accumulation and cell viability in MCF-7 cells. MCF-7 cells were incubated with 25.0 nM (6S)-[^3H]5-formylTHF and various concentrations of NADA, dopamine, and epinephrine for 12 h, then viable cells were quantified using trypan blue staining. […] All values were normalized to cpm for untreated cells, and untreated cells were given an arbitrary value of 100%. […] Cell viability is expressed as the percent of viable cells divided by the total number of cells. Total [^3H]folate compounds were quantified in cell lysates by liquid scintillation. All values represent quadruplicate measures, and error bars are standard deviations of the mean.
as §1

The test system of data set [5] is MTHFS. Briefly: Inhibition of MTHFS-catalyzed conversion of 5-formylTHF to 5,10-methenylTHF (spectrophotometric assay). The data set is classed as biochemical. How it is done:
Tissue samples were sonicated four times for 15 s in a buffer containing 100 mM HEPES pH 7.0, 100 mM sodium chloride, 5 mM EDTA, 1% Tween-20. The solution was clarified by centrifugation. MTHFS activity was determined using a spectrophotometer by monitoring the appearance of 5,10-methenyltetrahydrofolate, which has an absorbance maximum at 355 nm. For a typical assay, 50 μL of clarified tissue supernatant was added to a quartz cuvette containing 100 μM (6S)-5-formylTHF, 1 mM Mg-ATP and 100 mM MES, pH 6.0 and the rate of 5,10-methenylTHF formation was quantified. Activity measurements were normalized to total protein that was quantified using the Lowry-Bensadoun method (Bensadoun et al., “Assay of Proteins in the Presence of Interfering Materials,” Anal Biochem 70:241-250 (1976), which is hereby incorporated by reference in its entirety).
The UV spectrum of purified rabbit liver MTHFS differs from the spectrum of recombinant mouse MTHFS (FIG. 4). Therefore, it was investigated whether rabbit liver MTHFS could be reconstituted with NADA resulting in a change in the UV spectrum of the protein. […]

Data set [6] concerns MCF-7 cells. Briefly: Folate turnover in cultured cells (pulse-chase). Conditions: 20 μM in chase medium. The data set is classed as cell-based, human. How it is done:
Cell monolayers at 75% confluence were washed with PBS, then labeled for 12 h in defined αMEM lacking folate and glycine and supplemented with 25 nM (6S)-[^3H]5-formylTHF. For the chase, cell monolayers were washed with 10 ml of PBS, trypsinized, and pelleted by centrifugation. The cells were seeded in triplicate (1×10^6 cells) into 100 mm culture plates containing 10 ml of defined αMEM supplemented with 2 μM folic acid. Catecholamines (20 μM dopamine, NADA, and L-dopa) were prepared freshly and added to the chase media prior to the addition of labeled cells. Cells were harvested at defined time points, the medium was removed and the tritium in the medium was quantified. The cell monolayers were washed with PBS and lysed with 0.2 M ammonium hydroxide. Tritium remaining in the cells was quantified using a Beckman LS 8100 liquid scintillation counter.
Catecholamine availability may be rate limiting for MTHFS-catalyzed folate catabolism in MCF-7 cells. The effects of exogenous catecholamines on folate turnover rates were determined using pulse-chase analyses in MCF-7 cells. Folate turnover in MCF-7 cells labeled with [^3H]-5-formylTHF is biphasic, with an initial rapid phase of turnover followed by a slower phase (Anguera et al., J. Biol. Chem. 278:29856-29862 (2003), which is hereby incorporated by reference in its entirety). Addition of 20 μM NADA to the chase medium increased the magnitude of the rapid phase of folate turnover by 12% compared to untreated cells (FIG. 11A). […] To distinguish between these two mechanisms, 20 μM dopamine and L-dopa were added to the chase medium. Dopamine is the precursor of NADA, and both dopamine and L-dopa can function as oxidants following oxidation of their diphenolic ring generating dopamine-quinone or dopa-quinone (Rescigno et al., Biochemical Pharmacology 56:1089-1096 (1998); Graham, D. G. Mol. Pharmacol. 14:633-643 (1978), which are hereby incorporated by reference in their entirety). […] The addition of dopamine to the culture medium increased the magnitude of the rapid phase of folate turnover by only 4% relative to untreated cells (FIG. 11A). The minor effect of dopamine on folate turnover may reflect N-acetyltransferase-mediated dopamine acetylation that generating NADA. […] In summary, the pulse chase experiments indicate that NADA may be limiting for in vivo folate catabolism, and NADA may function specifically as the electron acceptor molecule for MTHFS-mediated folate catabolism.

Data set [7] has as its target T3, recombinant mouse MTHFS protein (Mus musculus, UniProt Q9D110).
T3 sequence (Q9D110 1-203): T2 sequence (Q9D110 1-203)
The conditions noted are these: equilibrium binding.

By Ki is commonly meant the dissociation constant of the complex between target and ligand, obtained from inhibition or displacement.

In the case of `Nc1nc(N)c(CCCC(C=O)c2ccc(C(=O)N[C@@H](CCC(=O)O)C(=O)O)cc2)c(=O)[nH]1` (stereo partly drawn) [10-formyl-DDACTHF, 10-formyl-5,10-dideaza-acyclicTHF], the “accumulation in cell cultures” value in the data set on cell cultures was “over 100 fold”.
In the case of `CN1c2c([nH]c(N)nc2=O)NC[C@@H]1CNc1ccc(C(=O)N[C@@H](CCC(=O)O)C(=O)O)cc1` [(6S)-5-methylTHF], the Ki on MTHFS [1] is 18 µM. In addition, the “conversion to pABG by reconstituted mouse MTHFS.oxNADA.Cu^2+ protein” value in data set [2] was “Approximately 1%”.
With `Nc1nc2c(c(=O)[nH]1)C[C@@H](CCc1ccc(C(=O)N[C@@H](CCC(=O)O)C(=O)O)cc1)CN2` [DDATHF, 5,10-dideazatetrahydrofolate], the Ki at mouse enzyme GARFT is 0.006 µM.
Regarding `CC(=O)NCCc1ccc(O)c(O)c1` [NADA, N-acetyldopamine], the “[^3H]folate accumulation” value in the data set on MCF-7 cells [3] is “decreased [^3H]folate accumulation in a dose-dependent manner”. Further, the cell viability result in the data set on MCF-7 cells [4] was “NADA-induced cell death”. Further, the “inhibition of MTHFS-catalyzed conversion of 5-formylTHF to 5,10-methenylTHF” value in the data set with MTHFS [5] is recorded as “did not inhibit”. Further, in the data set on MCF-7 cells [6], the “increase in magnitude of the rapid phase of folate turnover compared to untreated cells” value was 12% and the “slow phase of folate turnover relative to untreated cells” value is “did not change”.
For the compound `NCCc1ccc(O)c(O)c1` [dopamine], the “[^3H]folate accumulation” value in the data set with MCF-7 cells [3] was “Neither the addition of dopamine nor epinephrine to culture media impaired [^3H]folate accumulation”. The “binding to recombinant mouse MTHFS protein” value in data set [7] is given as “neither dopamine nor oxidized dopamine bind”. Further, the “increase in magnitude of the rapid phase of folate turnover compared to untreated cells” value in the data set with MCF-7 cells [6] came out at 4%.
